In ChEMBL document CHEMBL1201862, “PubChem BioAssay data set” (2004):
Blank lines part the entries; values can stand above or below the compound they belong to. Active and inactive are the calls of the source.

Assays:
[1] = molecular target: T1, Luciferin 4-monooxygenase (Photinus pyralis, UniProt P08659); assay: In vitro luciferase assay using purified luciferase. [Related pubchem assays: 1299, 1270, 1295, 1375, 1287, 1281, 1293, 1291, 1289, 1280, 465, 1364, 1282, 1372, 1365, 1370, 1367, 1366, 1266, 1373, 1292, 1290, 1302, 1371, 1283, 1271, 1294, 1374, 1368, 1369 ]
T1 sequence (P08659 whole entry): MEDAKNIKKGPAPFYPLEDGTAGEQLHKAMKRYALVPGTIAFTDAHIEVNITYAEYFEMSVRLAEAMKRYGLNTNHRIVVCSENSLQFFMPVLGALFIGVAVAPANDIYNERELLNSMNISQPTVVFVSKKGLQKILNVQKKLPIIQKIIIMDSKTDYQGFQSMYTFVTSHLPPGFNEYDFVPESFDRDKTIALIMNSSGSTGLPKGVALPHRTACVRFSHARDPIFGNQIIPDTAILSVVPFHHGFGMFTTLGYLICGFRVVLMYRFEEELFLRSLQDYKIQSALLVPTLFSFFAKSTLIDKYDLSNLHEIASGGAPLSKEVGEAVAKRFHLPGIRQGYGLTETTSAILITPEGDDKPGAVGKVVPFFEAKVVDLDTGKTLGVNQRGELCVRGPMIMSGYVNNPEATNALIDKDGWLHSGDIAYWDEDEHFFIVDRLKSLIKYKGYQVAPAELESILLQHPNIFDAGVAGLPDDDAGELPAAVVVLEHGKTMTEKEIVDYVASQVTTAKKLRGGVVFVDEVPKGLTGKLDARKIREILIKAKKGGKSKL

HT-1080 = assay: cytotoxicity in HT1080 fibrosarcoma cells, cell-based, fluorescence readout (AID 620); type: functional; details: Homo sapiens
HEK293 [2] = assay: Cytotoxicity assay in HEK293 cells. [Related pubchem assays (depositor defined):AID1266, AID1269, AID1270, AID1271, AID1280, AID1281, AID1282, AID1283, AID1287, AID1289, AID1290, AID1291, AID1292, AID1293, AID1294, AID1295, AID1299, AID1302, AID1364, AID1365, AID1366, AID1367, AID1369, AID1370, AID1371, AID1372, AID1373, AID1374, AID1375, AID1384 …; type: functional, cell-based; details: Homo sapiens
[3] = inhibitors of clade B AD8 Env fusion, dose response, cell-based, cherry-pick (AID 652062); type: functional;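 further: luciferase signal from cell-cell fusion driven by HIV-1 clade B AD8 Env; potency is for inhibitors of fusion seen as a drop in luminescence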
HEK293 [4] = assay: PMA/Ionomycin induced NF-kB luciferase assay in 293- NF-kB-Luc stable cells. [Related pubchem assays: 1299, 1270, 1295, 1375, 1287, 1281, 1293, 1291, 1289, 1280, 465, 1364, 1282, 1372, 1365, 1370, 1367, 1366, 1269, 1373, 1292, 1290, 1302, 1371, 1283, 1271, 1294, 1374, 1368, 1369 ]; type: functional, cell-based; details: Homo sapiens
[5] = inhibitors of HIV Env-driven cell fusion, dose response, cherry-pick (AID 652057); type: functional, cell-based
[6] = molecular target: Glyceraldehyde-3-phosphate dehydrogenase (Homo sapiens, UniProt P04406)
Chain of Glyceraldehyde-3-phosphate dehydrogenase (P04406 whole entry): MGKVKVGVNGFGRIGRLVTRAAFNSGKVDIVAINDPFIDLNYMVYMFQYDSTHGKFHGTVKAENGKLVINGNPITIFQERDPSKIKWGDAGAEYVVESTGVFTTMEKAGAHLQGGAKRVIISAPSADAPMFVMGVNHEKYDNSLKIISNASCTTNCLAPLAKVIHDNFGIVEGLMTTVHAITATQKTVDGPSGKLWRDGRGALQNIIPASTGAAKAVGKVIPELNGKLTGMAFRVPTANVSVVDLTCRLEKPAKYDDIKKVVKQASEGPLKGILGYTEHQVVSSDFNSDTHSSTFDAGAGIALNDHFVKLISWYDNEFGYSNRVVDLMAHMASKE

[7] = molecular target: T1, Luciferin 4-monooxygenase; assay: Counter Screen for Luciferase-based Assay Positives. [Related pubchem assays: 620, 618, 411 ]
[8] = off-target signal loss in HeLa-CEM21 co-culture – HeLa F-luc CTL cells, cherry-picked, counter-screen for HIV-1 Env fusion inhibitor project, dose response (AID 652040); type: functional, cell-based;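 further: potency for signal decrease marking cytotoxic or nonspecific inhibition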
[9] = molecular target: T2, Alkaline phosphatase, tissue-nonspecific isozyme (Homo sapiens, UniProt P05186)
T2 sequence (P05186 whole entry): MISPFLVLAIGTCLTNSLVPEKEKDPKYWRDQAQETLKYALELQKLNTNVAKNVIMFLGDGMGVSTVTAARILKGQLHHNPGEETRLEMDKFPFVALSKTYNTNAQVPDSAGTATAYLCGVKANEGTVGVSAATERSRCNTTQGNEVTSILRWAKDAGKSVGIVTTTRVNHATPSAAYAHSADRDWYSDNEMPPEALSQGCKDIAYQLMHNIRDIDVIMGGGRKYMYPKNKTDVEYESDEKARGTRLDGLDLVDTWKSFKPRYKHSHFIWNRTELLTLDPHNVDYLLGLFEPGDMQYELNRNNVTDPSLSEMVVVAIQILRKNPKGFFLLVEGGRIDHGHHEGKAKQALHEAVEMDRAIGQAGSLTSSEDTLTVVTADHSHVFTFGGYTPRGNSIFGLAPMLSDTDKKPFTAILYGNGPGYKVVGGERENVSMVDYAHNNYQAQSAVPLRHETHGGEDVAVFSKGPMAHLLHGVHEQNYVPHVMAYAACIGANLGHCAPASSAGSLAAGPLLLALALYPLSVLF

[10] = molecular target: Intestinal-type alkaline phosphatase (Homo sapiens, UniProt P09923); assay: activation of human intestinal alkaline phosphatase – biochemical, dose response (AID 488873); type: functional
Chain of Intestinal-type alkaline phosphatase (Homo sapiens, UniProt P09923) (P09923 whole entry): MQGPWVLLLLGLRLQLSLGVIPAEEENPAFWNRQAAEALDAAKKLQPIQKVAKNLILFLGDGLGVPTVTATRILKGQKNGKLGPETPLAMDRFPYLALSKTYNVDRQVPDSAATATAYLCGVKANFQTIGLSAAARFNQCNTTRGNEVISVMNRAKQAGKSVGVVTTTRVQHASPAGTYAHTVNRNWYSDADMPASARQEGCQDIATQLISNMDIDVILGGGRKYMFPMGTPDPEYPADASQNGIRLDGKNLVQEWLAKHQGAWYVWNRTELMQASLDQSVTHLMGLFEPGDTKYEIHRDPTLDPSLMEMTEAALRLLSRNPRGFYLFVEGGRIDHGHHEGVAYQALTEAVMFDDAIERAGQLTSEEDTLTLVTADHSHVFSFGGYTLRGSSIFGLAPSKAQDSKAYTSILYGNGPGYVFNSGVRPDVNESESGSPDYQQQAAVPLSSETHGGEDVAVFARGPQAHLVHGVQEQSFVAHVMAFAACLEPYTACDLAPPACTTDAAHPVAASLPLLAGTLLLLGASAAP

[11] = cytotoxicity toward NIH3T3 fibroblasts, dose response, counter-screen, cell-based, ATP luminescence, mouse fibroblasts (AID 2010); type: functional;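 further: cells exposed to compound for about 90 hours before reading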
[12] = molecular target: Intestinal-type alkaline phosphatase (Mus musculus, UniProt P24822); assay: PubChem AID 488785; type: functional
Chain of Intestinal-type alkaline phosphatase (Mus musculus, UniProt P24822) (P24822 whole entry): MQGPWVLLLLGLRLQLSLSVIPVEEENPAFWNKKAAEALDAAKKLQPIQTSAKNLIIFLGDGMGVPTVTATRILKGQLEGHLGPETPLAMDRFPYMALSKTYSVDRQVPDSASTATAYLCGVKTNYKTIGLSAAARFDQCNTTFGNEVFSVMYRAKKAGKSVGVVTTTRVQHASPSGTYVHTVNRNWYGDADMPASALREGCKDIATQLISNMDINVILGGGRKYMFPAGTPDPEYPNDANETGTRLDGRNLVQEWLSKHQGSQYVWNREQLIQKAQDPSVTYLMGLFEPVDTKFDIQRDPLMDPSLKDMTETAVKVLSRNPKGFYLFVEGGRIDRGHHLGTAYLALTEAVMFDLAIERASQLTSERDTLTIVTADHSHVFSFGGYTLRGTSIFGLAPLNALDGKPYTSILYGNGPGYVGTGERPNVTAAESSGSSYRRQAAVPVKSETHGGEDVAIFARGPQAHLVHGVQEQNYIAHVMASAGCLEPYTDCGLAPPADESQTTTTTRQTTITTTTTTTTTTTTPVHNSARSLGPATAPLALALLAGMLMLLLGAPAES

[13] = molecular target: T2, Alkaline phosphatase, tissue-nonspecific isozyme; assay: TNAP enzyme inhibition by screening hits, dose response, selectivity assay for mouse IAP inhibitor project, biochemical, human TNAP, uHTS hits (AID 488906); type: functional
[14] = inhibitors of intracellular T. cruzi replication, confirmation, NIH3T3 host cells, beta-gal luminescence (AID 2044); type: functional, cell-based;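 further: intracellular parasites grown in NIH/3T3 mouse fibroblasts as host cells; luminescent beta-galactosidase reporter signal from transgenic T. cruzi replicating inside host cells; inhibitors lower the luminescence signal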
[15] = molecular target: G2/mitotic-specific cyclin-B1 (Homo sapiens, UniProt P14635); assay: Counterscreen assay for inhibitors of Wee1 degradation: dose response cell-based assay to identify inhibitors of cyclin B degradation. [Related pubchem assays: 1410, 1321 ]; type: functional
Chain of G2/mitotic-specific cyclin-B1 (P14635 whole entry): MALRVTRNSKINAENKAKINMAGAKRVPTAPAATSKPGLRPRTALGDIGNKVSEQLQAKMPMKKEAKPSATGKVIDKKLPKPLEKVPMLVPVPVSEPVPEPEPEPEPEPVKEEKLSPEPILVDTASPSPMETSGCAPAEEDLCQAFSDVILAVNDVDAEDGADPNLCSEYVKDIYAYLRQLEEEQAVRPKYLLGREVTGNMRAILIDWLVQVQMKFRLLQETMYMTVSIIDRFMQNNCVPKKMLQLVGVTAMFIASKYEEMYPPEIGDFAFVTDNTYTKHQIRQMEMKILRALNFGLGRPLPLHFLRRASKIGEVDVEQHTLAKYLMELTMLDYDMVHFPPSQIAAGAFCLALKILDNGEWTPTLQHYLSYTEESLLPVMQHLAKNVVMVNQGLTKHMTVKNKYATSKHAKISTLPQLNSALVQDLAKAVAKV

Beta-galactosidase = Beta-galactosidase (Escherichia coli, UniProt Q8VNN2); assay: Dose response counterscreen for EBI2 assay utilizing the enzyme, b-galactosidase.; type: functional
Chain of Beta-galactosidase (Q8VNN2 whole entry): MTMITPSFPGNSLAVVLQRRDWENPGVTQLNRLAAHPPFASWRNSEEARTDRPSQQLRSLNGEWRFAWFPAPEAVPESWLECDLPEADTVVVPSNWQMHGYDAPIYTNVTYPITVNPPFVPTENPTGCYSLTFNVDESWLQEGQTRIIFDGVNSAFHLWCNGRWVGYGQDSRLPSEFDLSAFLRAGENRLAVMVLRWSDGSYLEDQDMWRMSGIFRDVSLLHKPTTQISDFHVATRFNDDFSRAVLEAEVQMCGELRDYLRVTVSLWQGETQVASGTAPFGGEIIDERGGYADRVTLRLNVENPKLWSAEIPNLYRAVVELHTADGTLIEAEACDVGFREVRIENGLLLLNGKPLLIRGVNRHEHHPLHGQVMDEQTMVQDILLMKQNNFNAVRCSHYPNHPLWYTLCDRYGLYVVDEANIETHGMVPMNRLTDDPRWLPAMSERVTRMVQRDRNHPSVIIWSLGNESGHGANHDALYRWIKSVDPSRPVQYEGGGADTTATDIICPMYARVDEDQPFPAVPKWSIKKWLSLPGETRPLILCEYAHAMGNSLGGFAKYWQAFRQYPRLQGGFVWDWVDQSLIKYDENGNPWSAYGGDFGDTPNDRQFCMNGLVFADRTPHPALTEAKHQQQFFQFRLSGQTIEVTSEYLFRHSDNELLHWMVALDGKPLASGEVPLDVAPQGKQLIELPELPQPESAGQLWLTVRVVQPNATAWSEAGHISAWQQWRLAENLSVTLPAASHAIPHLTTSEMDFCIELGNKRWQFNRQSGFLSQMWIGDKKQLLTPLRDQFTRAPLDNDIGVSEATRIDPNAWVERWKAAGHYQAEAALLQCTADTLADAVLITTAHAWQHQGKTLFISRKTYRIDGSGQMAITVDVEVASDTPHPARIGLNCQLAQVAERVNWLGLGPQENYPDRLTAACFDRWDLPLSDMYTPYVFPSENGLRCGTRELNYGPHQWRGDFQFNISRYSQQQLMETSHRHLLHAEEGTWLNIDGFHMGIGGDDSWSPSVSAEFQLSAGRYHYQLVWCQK

Wee1-like protein kinase = Wee1-like protein kinase (Homo sapiens, UniProt P30291); assay: Dose Response Cell-based Assay for Inhibitors of Wee1 Degradation. [Related pubchem assays: 1410, 1321 ]; type: functional
Chain of Wee1-like protein kinase (P30291 whole entry): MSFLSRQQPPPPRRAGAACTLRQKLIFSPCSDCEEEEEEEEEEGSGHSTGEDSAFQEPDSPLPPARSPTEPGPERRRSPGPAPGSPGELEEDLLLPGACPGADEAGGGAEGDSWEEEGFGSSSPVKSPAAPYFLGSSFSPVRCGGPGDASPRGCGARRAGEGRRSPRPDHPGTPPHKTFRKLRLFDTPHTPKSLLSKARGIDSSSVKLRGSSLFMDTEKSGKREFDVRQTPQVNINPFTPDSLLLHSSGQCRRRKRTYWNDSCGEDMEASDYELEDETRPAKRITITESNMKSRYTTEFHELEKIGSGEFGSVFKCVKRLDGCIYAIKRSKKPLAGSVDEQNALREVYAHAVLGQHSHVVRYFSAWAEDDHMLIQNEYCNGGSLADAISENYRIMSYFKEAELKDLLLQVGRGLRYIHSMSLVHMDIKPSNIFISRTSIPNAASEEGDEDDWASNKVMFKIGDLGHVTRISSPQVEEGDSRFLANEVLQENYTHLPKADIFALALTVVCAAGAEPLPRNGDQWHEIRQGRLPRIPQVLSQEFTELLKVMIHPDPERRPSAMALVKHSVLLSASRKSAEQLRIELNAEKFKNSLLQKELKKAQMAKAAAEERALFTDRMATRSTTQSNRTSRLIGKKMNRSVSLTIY

[16] = inhibitors of Bluetongue virus cytopathic effect, confirmation, arbovirus, BSR cells (AID 1250); type: functional;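 further: protection from viral cytopathic effect measured as cell viability by ATP luminescence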
[17] = cytotoxicity in HEK-293T cells, dose response, cytotoxicity control for TCR NF-kB inhibitor project, luminescence, T-cell screen hits (AID 489026); type: functional, cell-based;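 further: cells exposed to compound about 14 hours before the viability readout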
[18] = molecular target: Melanin-concentrating hormone receptor 1 (Homo sapiens, UniProt Q99705); assay: Fluorescence-based counterscreen for antagonists of the G-protein coupled receptor 7 (GPR7): cell-based high throughput dose response assay to identify antagonists of the melanin-concentrating hormone receptor 1 (MCHR1).; type: functional
Chain of Melanin-concentrating hormone receptor 1 (Q99705 whole entry): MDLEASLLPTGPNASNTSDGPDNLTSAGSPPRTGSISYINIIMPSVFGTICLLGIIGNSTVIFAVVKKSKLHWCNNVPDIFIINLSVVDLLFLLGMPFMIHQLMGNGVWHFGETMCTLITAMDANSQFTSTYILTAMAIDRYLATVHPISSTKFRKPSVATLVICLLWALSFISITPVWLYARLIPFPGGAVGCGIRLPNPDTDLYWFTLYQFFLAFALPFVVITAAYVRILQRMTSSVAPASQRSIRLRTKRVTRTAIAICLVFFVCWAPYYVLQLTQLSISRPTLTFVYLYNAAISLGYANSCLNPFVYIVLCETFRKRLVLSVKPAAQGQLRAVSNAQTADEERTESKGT

[19] = molecular target: T3, Heat shock factor protein 1 (Mus musculus, UniProt P38532); assay: inhibition of MG132-induced HSE-luciferase signal, confirmation, cell-based, NIH3T3, luminescence, dose retest (AID 2382); type: functional;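 further: NIH3T3 fibroblasts with HSF1-driven luciferase reporter stressed by proteasome inhibitor MG132; luminescence from HSF1-driven luciferase expression after 8 hours of MG132 stress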
T3 sequence (P38532 whole entry): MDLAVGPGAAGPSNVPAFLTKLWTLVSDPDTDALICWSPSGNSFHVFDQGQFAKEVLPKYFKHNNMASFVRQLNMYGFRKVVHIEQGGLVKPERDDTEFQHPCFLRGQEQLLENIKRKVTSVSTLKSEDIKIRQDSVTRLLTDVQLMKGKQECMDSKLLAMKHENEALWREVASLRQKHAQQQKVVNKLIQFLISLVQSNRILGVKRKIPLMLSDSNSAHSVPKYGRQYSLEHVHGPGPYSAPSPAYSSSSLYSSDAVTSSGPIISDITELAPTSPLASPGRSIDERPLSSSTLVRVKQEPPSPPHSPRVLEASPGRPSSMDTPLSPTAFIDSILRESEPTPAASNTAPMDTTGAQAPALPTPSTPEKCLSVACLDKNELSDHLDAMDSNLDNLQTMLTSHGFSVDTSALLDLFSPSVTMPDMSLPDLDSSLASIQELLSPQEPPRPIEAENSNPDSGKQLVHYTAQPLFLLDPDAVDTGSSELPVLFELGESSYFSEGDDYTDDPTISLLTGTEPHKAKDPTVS

[20] = molecular target: Neuropeptides B/W receptor type 1 (Homo sapiens, UniProt P48145); assay: Fluorescence-based dose response cell-based high throughput screening assay to identify antagonists of the G-protein coupled receptor 7 (GPR7). [Related pubchem assays: 1952 (Screening assay (GPR7 antagonists).), 1880 (Summary AID.)]; type: functional
Chain of Neuropeptides B/W receptor type 1 (P48145 whole entry): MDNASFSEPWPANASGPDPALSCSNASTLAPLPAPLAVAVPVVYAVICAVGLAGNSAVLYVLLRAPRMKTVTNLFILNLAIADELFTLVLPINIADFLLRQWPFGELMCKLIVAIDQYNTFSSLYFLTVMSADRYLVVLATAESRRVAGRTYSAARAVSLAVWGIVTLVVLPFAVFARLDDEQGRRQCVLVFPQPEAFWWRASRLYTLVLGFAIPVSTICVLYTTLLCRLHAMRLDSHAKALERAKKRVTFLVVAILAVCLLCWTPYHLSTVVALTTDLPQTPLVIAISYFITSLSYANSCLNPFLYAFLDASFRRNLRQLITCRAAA

Protein Rev = Protein Rev (Human immunodeficiency virus type 1 group M subtype B (isolate WMJ22)(HIV-1), UniProt P05866); assay: HIV-1 Rev-RRE RNA binding disruptors, dose response, biochemical, protein-RNA interaction (AID 842); design: species or system Human immunodeficiency virus 1
Chain of Protein Rev (P05866 whole entry): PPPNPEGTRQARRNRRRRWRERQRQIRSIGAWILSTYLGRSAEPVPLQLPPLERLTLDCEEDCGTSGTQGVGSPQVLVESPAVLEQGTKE

[21] = cytotoxicity in HPDE-C7 cells, cell-based, fluorescence, HTS (AID 430); type: functional; details: Homo sapiens
[22] = cytotoxicity in KRAS-transformed pancreatic duct cells, primary screen, cell-based, fluorescence, HTS (AID 431); type: functional; details: Homo sapiens;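 further: cell line used: HPDE-C7K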

SMILES: O=C(c1ccc(Cl)cc1)N1CCCCC(Sc2nnc(-c3ccc4c(c3)OCO4)o2)C1=O (stereo unspecified)
EC50 [1]: > 8 µM (not active) | EC50 (HT-1080): > 50 µM (not active) | EC50 (HEK293 [2]): 2.19 µM (active) | AC50 [3]: 5.75 µM (active) | EC50 (HEK293 [4]): 4.25 µM (not active) | AC50 [5]: 2.78 µM (active) | IC50 [6]: > 100 µM (not active) | EC50 [7]: 4.07 µM (active) | AC50 [8]: 13.5 µM (active)

SMILES: CC(C)c1ccc(NC(=O)NC2CCN(CC(=O)Nc3cccc4ccccc34)CC2)cc1
EC50 [9]: > 100 µM (not active) | EC50 [10]: > 100 µM (inactive) | EC50 [11]: > 60 µM (inconclusive) | IC50 [12]: 10.8 µM (active) | IC50 [13]: 59.3 µM (active) | EC50 [14]: 1.88 µM (active)

EC50 [15]: > 49.7 µM (not active) | IC50 (Beta-galactosidase): > 80 µM (inactive) | EC50 (Wee1-like protein kinase): > 49.7 µM (not active)
SMILES: COC(=O)C1CCN(C(=O)/C=C/c2ccc(OC)cc2)CC1

IC50 [16]: 23.2 µM (active)
SMILES: CCc1cc(C(=O)O)c(NC(=O)C(c2ccccc2)c2ccccc2)s1

SMILES: COc1ccccc1C(=O)N(CCC1CCCN1C)c1nc2ccccc2s1 (stereo unspecified)
IC50 [17]: > 80 µM (inactive) | IC50 [18]: 29.7 µM (not active) | EC50 [19]: < 0.16 µM (active) | IC50 [20]: 21.4 µM (not active)

SMILES: CN(C)CC(O)COc1ccc(-c2ccc(C#N)cc2)cc1 (stereo unspecified)
IC50 (Protein Rev): > 79.4 µM (not active) | EC50 [21]: > 20 µM (not active) | EC50 [22]: > 20 µM (not active)
